The structures appear in SMILES notation.

Experiment [1] relates to human TLR7 mutant (dIRR2). The experiment in a line: TLR7 mutant (deletion in second leucine-rich repeat) NFκB-luc cellular reporter assay. Format: cell-based. More on the design: unit not given here. The following applies: HEK293 NFκB-luc reporter, mutant TLR7, 6 hours incubation. On the procedure:
(§1) The ability of compounds to activate human TLR7 and/or TLR8 was assessed in a cellular reporter assay using HEK293 cells transiently transfected with a TLR7 or TLR8 expression vector and NFκB-luc reporter construct. In one instance the TLR expression construct expresses the respective wild type sequence or a mutant sequence comprising a deletion in the second leucine-rich repeat of the TLR.
(§2) Briefly, HEK293 cells were grown in culture medium (DMEM supplemented with 10% FCS and 2 mM Glutamine). For transfection of cells in 10 cm dishes, cells were detached with Trypsin-EDTA, transfected with a mix of CMV-TLR7 or TLR8 plasmid (750 ng), NFκB-luc plasmid (375 ng) and a transfection reagent and incubated 24 hours at 37° C. in a humidified 5% CO2 atmosphere. Transfected cells were then detached with Trypsin-EDTA, washed in PBS and resuspended in medium to a density of 1.67×10^5 cells/mL. Thirty microliters of cells were then dispensed into each well in 384-well plates, where 10 μL of compound in 4% DMSO was already present. Following 6 hours incubation at 37° C., 5% CO2, the luciferase activity was determined by adding 15 μl of Steady Lite Plus substrate (Perkin Elmer) to each well and readout performed on a ViewLux ultraHTS microplate imager (Perkin Elmer). Dose response curves were generated from measurements performed in quadruplicates. Lowest effective concentrations (LEC) values, defined as the concentration that induces an effect which is at least two fold above the standard deviation of the assay, were determined for each compound.
(In general: In a reporter assay the amount or activity of a reporter protein is the signal.)

The test system of experiment [2] is human TLR8 mutant (dIRR2). The experiment in a line: TLR8 mutant (deletion in second leucine-rich repeat) NFκB-luc cellular reporter assay. It counts as cell-based. Also noted: unit not given here. The following applies: HEK293 NFκB-luc reporter, mutant TLR8, 6 hours incubation. The protocol: as §1, §2
For the next experiment, the target named is T1, human TLR8 (Homo sapiens, UniProt Q9NR97).
T1 construct: expressed in transfected cells; host or cells: HEK293
T1 sequence (Q9NR97 27-1041): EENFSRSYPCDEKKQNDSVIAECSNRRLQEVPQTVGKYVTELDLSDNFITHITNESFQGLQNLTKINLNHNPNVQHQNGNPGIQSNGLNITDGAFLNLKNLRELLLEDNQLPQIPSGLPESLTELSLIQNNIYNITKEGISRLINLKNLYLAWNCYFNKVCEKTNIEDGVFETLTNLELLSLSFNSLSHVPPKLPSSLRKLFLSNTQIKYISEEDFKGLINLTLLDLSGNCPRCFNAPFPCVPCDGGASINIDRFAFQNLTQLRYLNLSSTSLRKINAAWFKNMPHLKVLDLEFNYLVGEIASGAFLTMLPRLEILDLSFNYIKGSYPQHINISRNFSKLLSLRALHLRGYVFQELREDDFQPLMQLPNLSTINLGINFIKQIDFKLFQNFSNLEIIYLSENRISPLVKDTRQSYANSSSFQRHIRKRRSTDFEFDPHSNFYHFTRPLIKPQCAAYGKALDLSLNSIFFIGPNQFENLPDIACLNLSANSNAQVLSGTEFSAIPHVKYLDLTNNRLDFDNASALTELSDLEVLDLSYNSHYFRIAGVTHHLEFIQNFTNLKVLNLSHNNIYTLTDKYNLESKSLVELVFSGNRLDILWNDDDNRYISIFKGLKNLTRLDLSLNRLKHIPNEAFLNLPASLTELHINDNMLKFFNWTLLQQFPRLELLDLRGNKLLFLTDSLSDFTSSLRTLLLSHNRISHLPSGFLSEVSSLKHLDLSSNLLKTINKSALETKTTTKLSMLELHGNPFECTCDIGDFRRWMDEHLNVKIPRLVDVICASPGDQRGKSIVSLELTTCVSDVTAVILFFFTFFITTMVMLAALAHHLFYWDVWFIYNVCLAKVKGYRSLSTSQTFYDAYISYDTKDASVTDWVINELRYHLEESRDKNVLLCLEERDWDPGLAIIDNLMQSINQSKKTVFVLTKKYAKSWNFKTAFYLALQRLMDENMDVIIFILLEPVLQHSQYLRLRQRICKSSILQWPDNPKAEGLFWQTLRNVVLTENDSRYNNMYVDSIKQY
The experiment in a line: TLR8 wild type NFκB-luc cellular reporter assay. It counts as cell-based. Also noted: unit not given here. The note with it: HEK293 NFκB-luc reporter, 6 hours incubation. On the procedure:
as §1, §2

Experiment [3] relates to HCV replicon (Huh-7 luc/neo cells). The experiment in a line: Suppression of HCV replicon replication by conditioned media from PBMC. It counts as cell-based, HCV type 1b. The note with it: Hepatitis C virus, compound concentration applied to PBMCs giving 50% reduction of replicon luciferase activity, read-out: PBMC-HUH7_EC50. The protocol:
Activation of human TLR7 results in robust production of interferon by plasmacytoid dendritic cells present in human blood. The potential of compounds to induce interferon was evaluated by looking at the antiviral activity in the HCV replicon system upon incubation with conditioned media from peripheral blood mononuclear cells (PBMC). The HCV replicon assay is based on a bicistronic expression construct, as described by Lohmann et al. (Science (1999) 285: 110-113; Journal of Virology (2003) 77: 3007-15 3019) with modifications described by Krieger et al. (Journal of Virology (2001) 75: 4614-4624). The assay utilized the stably transfected cell line Huh-7 luc/neo harboring an RNA encoding a bicistronic expression construct comprising the wild type NS3-NS5B regions of HCV type 1b translated from an Internal Ribosome Entry Site (IRES) from encephalomyocarditis virus (EMCV), preceded by a reporter gene (Firefly-luciferase) and a selectable marker gene (neoR, neomycine phosphotransferase). The construct is flanked by 5′ and 3′ NTRs (non-translated regions) from HCV type 1b. Continued culture of the replicon cells in the presence of G418 (neoR) is dependent on the replication of the HCV RNA. The stably transfected replicon cells that replicate HCV RNA autonomously and to high levels, encoding inter alia luciferase, were used for profiling of the conditioned cell culture media.
Briefly, PBMCs were prepared from buffy coats of at least two donors using a standard Ficoll centrifugation protocol. Isolated PBMCs were resuspended in RPMI medium supplemented with 10% human AB serum and 2×10^5 cells/well were dispensed into 384-well plates containing compounds (70 μL total volume). After overnight incubation, 10 μL of supernatant was transferred to 384-well plates containing 2.2×10^3 replicon cells/well in 30 μL (plated the day before). Following 24 hours of incubation, replication was measured by assaying luciferase activity using 40 μL/well Steady Lite Plus substrate (Perkin Elmer) and measured with ViewLux ultraHTS microplate imager (Perkin Elmer). The inhibitory activity of each compound on the Huh7-luc/neo cells were reported as EC50 values, defined as the compound concentration applied to the PBMCs resulting in a 50% reduction of luciferase activity which in turn indicates the degree of replication of the replicon RNA on transfer of a defined amount of PBMC culture medium. Recombinant interferon α-2a (Roferon-A) was used as a standard control compound.

The molecule `CCC[C@@H](CO)Nc1nc(N)nc2cc(OC)c(OC)cc12` [Compound 6] yielded a TLR7-dIRR2_LEC in experiment [1] of 3.4. Further, the TLR8-dIRR2_LEC in experiment [2] amounted to 2.3. In addition, the TLR8-wt_LEC at human TLR8 is 4.4. The EC50 in experiment [3] came out at 3 µM.
For `CCCC[C@@H](CO)Nc1nc(N)nc2cc(OC)c(OC)cc12` [Compound 4], in that order: 2.4, 1.7, 2.6 and 3 µM.
For `CCC[C@@H](CCO)Nc1nc(N)nc2cc(OC)c(OC)cc12` [Compound 5] the same measures were 2.6, 2.6, 6.7 and 3.3 µM.
On to `CCCCCNc1nc(N)nc2cc(OC)c(OC)cc12` [Compound 2], for which, in experiment [1], the TLR7-dIRR2_LEC was determined as 1.2. The molecule further came in with a TLR8-dIRR2_LEC in experiment [2] of 0.6. Also, the TLR8-wt_LEC on human TLR8 is reported as 1.5. Further, in experiment [3], the EC50 amounted to 4.4 µM.

These data come from patent US8916575B2, “Quinazoline derivatives for the treatment of viral infections and further diseases” (Janssen R&D Ireland, priority 2011, dated 2014).
